From article PMC6295868, “Hybrid Inhibitors of Malarial Dihydrofolate Reductase with Dual Binding Modes That Can Forestall Resistance” (ACS Medicinal Chemistry Letters, 2018)
Where two headings read alike, the source gives them in different places.

Key:
[1] = in vitro; conditions: African green monkey
[2] = test system: wild-type and Pyr-resistant mutant P. falciparum; experiment: microbe, parasite or virus in culture; format: cell-based; conditions: Plasmodium falciparum, read-out: IC50 against both wild-type and Pyr-resistant mutant P. falciparum
[3] = test system: P. falciparum V1/S (IRNL); experiment: microbe, parasite or virus in culture; format: cell-based; conditions: Plasmodium falciparum, read-out: IC50 P. falciparum V1/S (IRNL)
[4] = test system: P. falciparum CSL-2 (NRNL); experiment: microbe, parasite or virus in culture; format: cell-based; conditions: Plasmodium falciparum, read-out: IC50 P. falciparum CSL-2 (NRNL)
[5] = test system: surrogate cells (BL21(DE3) E. coli) expressing wild-type PfDHFR; experiment: Bacterial surrogate growth, cells expressing wild-type PfDHFR; format: cell-based, Escherichia coli; conditions: 100 µM BT1, M9 minimal medium, trimethoprim
[6] = test system: P. falciparum TM4/8.2 (NCSI); experiment: microbe, parasite or virus in culture; format: cell-based; conditions: Plasmodium falciparum, read-out: IC50 P. falciparum TM4/8.2 (NCSI)
[7] = test system: surrogate cells (BL21(DE3) E. coli) expressing N51I+C59R+S108N+I164L quadruple mutant PfDHFR; experiment: Bacterial surrogate growth, cells expressing quadruple mutant PfDHFR; format: cell-based, Escherichia coli; conditions: 100 µM BT1, M9 minimal medium, trimethoprim
[8] = test system: P. falciparum K1CB1 (NRNI); experiment: microbe, parasite or virus in culture; format: cell-based; conditions: Plasmodium falciparum, read-out: IC50 P. falciparum K1CB1 (NRNI)
[9] = target: T1, hDHFR (Homo sapiens, UniProt P00374); conditions: read-out: Ki hDHFR
T1 sequence (P00374 1-187): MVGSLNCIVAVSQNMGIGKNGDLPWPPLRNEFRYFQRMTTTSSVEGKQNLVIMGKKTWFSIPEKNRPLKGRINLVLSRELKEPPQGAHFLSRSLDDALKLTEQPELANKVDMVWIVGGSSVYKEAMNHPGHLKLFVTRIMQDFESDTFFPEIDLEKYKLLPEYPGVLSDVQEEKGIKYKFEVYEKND

[10] = test system: P. falciparum W2 (IRNI); experiment: microbe, parasite or virus in culture; format: cell-based; conditions: Plasmodium falciparum, W2, read-out: IC50 P. falciparum W2 (IRNI)
[11] = test system: Vero cells; parameters: method as in PMID 11881993; conditions: IC50 against Vero cells; read-out: cytotoxicity Vero cells; cited from earlier work
[12] = test system: P. falciparum V1/S (IRNL); conditions: ± SD; cited from earlier work

## CCc1nc(N)nc(N)c1OCCCOc1cccc(-c2c(N)nc(N)nc2CC)c1 [BT1]
[1]
  IC50: 5940 ± 650 nM
[2]
  IC50: < 5000 nM
[3]
  IC50: 1720 ± 690 nM
[4]
  IC50: 510 ± 80 nM
[5]
  growth inhibition of surrogate cells: completely inhibitory
[6]
  IC50: 290 ± 50 nM
[7]
  growth inhibition of surrogate cells: completely inhibitory
[8]
  IC50: 220 ± 60 nM
[9]
  Ki: 22.5 ± 2.9 nM
[10]
  IC50: 250 ± 50 nM

## CCc1nc(N)nc(N)c1OCCCOc1ccc(-c2c(N)nc(N)nc2CC)cc1 [BT2S]
[1]
  IC50: 6300 ± 1500 nM
[3]
  IC50: 4400 ± 710 nM
[4]
  IC50: 3950 ± 360 nM
[6]
  IC50: 63 ± 14 nM
[8]
  IC50: 1840 ± 310 nM
[9]
  Ki: 20.2 ± 3.3 nM
[10]
  IC50: 2350 ± 100 nM

## CCc1nc(N)nc(N)c1OCCCOc1ccc(-c2c(N)nc(N)nc2CC)cc1 [BT2]
[9]
  Ki: 18.1 ± 1.3 nM

## CCc1nc(N)nc(N)c1-c1ccc(OCCCOc2ccc(-c3c(N)nc(N)nc3CC)cc2)cc1 [BT3S]
[1]
  IC50: 2530 ± 440 nM
[3]
  IC50: 330 ± 23 nM
[4]
  IC50: 310 ± 20 nM
[6]
  IC50: 35 ± 3.3 nM
[8]
  IC50: 330 ± 38 nM
[9]
  Ki: 33.6 ± 10.6 nM
[10]
  IC50: 300 ± 30 nM

## CCc1nc(N)nc(N)c1-c1cccc(Cl)c1 [P30]
[11]
  IC50: 7000 nM

## Cc1nc(N)nc(N)c1OCCCOc1cc(Cl)c(Cl)cc1Cl [P65, reference compound]
[1]
  IC50: 4030 ± 410 nM
[4]
  IC50: 4400 ± 2100 nM
[8]
  IC50: 1920 ± 530 nM
[9]
  Ki: 47.6 ± 4 nM
[10]
  IC50: 2270 ± 650 nM

## CCc1nc(N)nc(N)c1-c1ccc(Cl)cc1 [Pyr, pyrimethamine, reference compound]
[1]
  IC50: > 100000 nM
[12]
  IC50: > 100000 nM
